This assay deals with T1, human RXFP1 (Homo sapiens, UniProt Q9HBX9).
T1 construct: expressed in transfected cells
T1 sequence (Q9HBX9 1-757): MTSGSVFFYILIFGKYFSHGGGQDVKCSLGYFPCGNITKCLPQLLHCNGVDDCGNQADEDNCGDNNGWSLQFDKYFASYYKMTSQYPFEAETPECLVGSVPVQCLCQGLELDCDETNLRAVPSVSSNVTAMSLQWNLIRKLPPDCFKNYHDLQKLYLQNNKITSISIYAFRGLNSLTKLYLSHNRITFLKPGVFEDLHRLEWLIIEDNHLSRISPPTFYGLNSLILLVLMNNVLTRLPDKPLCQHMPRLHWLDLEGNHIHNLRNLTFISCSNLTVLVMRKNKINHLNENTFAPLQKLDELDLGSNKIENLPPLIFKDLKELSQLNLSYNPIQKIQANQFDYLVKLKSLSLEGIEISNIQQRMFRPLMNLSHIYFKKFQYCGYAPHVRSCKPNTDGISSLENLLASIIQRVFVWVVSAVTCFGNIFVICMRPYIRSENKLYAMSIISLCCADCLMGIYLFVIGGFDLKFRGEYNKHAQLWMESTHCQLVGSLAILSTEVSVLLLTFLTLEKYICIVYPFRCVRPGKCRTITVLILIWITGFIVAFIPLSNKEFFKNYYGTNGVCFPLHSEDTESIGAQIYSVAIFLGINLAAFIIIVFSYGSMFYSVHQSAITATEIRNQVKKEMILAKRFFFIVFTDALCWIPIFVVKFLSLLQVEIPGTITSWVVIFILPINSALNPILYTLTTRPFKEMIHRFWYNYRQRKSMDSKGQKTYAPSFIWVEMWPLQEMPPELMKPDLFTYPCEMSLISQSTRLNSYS
As to the kind of experiment: RXFP1 cAMP assay (hRXFP1 HEK293 cAMP assay, HTRF). The assay is classed as cell-based. The method in brief:
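Intracellular cAMP was read by HTRF, with potency fitted to a 4-parameter logistic curve. Compound exposure (0.010 nM–50 μM final, 2% DMSO) lasted 30 min at room temperature. Cells were hRXFP1-HEK293 at 1500 per well in IBMX-containing (0.5 mM) HEPES-buffered HBSS.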

The mark [1] stands for this setting: HEK293 cells stably expressing human RXFP1, 30 min at room temperature, read-out: cAMP hRXFP1 HEK293 Assay EC50.

Like-named read-outs stand apart in the source and are kept apart here.

The EC50 is the concentration at which the effect is half-maximal. `O=C(N[C@H]1[C@@H](C(=O)Nc2ccc(F)c(C(F)(F)F)c2)[C@H]2CC[C@@H]1/C2=C\C1CC1)c1cc(C2=NOC3CC(CO)CC23)ccc1OCC(F)F` (stereo partly shown) [compound 781]: under setting [1], the 50% effective concentration (EC50) came out at 2.7 nM.

For `COc1ccc(-c2cc(C(CC(F)(F)F)NC(=O)C3CCOCC3)ccc2F)cc1C(=O)N[C@H]1[C@@H](C(=O)Nc2ccc(F)c(C(F)(F)F)c2)[C@H]2CC[C@@H]1/C2=C\C1CCCC1` (stereo partly shown) [compound 944], the EC50 under setting [1] was determined as 1.9 nM.

For the molecule `Cc1ccc(C2=NOC3COCC23)cc1C(=O)N[C@H]1[C@@H](C(=O)Nc2ccc(F)c(C(F)(F)F)c2)[C@H]2CC[C@@H]1/C2=C\C1CC1` (single isomer, unassigned) [compound 716], the EC50 under setting [1] came out at 1980 nM.

Take `COc1ccc(C2=NOC3COCC23)cc1C(=O)N[C@H]1[C@@H](C(=O)NCc2ccccc2C)[C@H]2CC[C@@H]1/C2=C\C1CC1` (stereo partly shown) [compound 585]: the EC50 under setting [1] turned out to be 78.3 nM.

Turning to `COc1ccc(C2=NOC3C[C@H](O)CC23)cc1C(=O)N[C@@H]1C2CCC(/C2=C/C2CC2)[C@@H]1C(=O)Nc1ccc(F)c(C(F)(F)F)c1` (stereo partly shown) [compound 407], the EC50 under setting [1] turned out to be 21 nM.

In the case of `COc1ccc(C2=NOC3CCC(O)C23)cc1C(=O)N[C@H]1[C@@H](C(=O)Nc2ccc(F)c(C(F)(F)F)c2)[C@H]2CC[C@@H]1/C2=C\C1CC1` (single isomer, unassigned) [compound 496], the EC50 under setting [1] amounted to 10.5 nM.

As to `COc1ccc(-c2cc(C(C)OC(=O)Nc3ccc(F)cc3)ccc2F)cc1C(=O)N[C@@H]1C2CCC(/C2=C/C2CC2)[C@@H]1C(=O)Nc1ccc(F)c(C(F)(F)F)c1` (stereo partly shown) [compound 226], the EC50 under setting [1] turned out to be 3 nM.

On to `COc1ccc(-c2cc(C(COC(=O)Nc3ccccc3)C(F)(F)F)ccc2F)cc1C(=O)N[C@H]1[C@@H](C(=O)Nc2ccc(F)c(C(F)(F)F)c2)[C@H]2CC[C@@H]1/C2=C\C1CC1` (stereo partly shown) [compound 875], for which, under setting [1], the concentration for a half-maximal effect (EC50) turned out to be 1.8 nM.

In the case of `COc1ccc(-c2cc(C(NC(=O)CC3CCOCC3)C(=O)O)ccc2F)cc1C(=O)N[C@@H]1C2CCC(/C2=C/C(F)(F)F)[C@@H]1C(=O)Nc1ccc(F)c(C(F)(F)F)c1` (stereo partly shown) [compound 242], the concentration giving a half-maximal response (EC50) under setting [1] amounted to 3 nM.

Consider `O=C(N[C@H]1[C@@H](C(=O)Nc2ccc(F)c(C(F)(F)F)c2)[C@H]2CC[C@@H]1/C2=C\C1CC1)c1cc(C2=NOC3CC(CO)CC23)cc(F)c1OCC(F)F` (stereo partly shown) [compound 789], for which the EC50 under setting [1] is 4.4 nM.

Take `CN(C)c1ccc(C2=NOC3COCC23)cc1C(=O)N[C@H]1[C@@H](C(=O)Nc2ccc(F)c(C(F)(F)F)c2)[C@H]2CC[C@@H]1/C2=C\C1CC1` (stereo partly shown) [compound 460]: the EC50 under setting [1] came to 2.5 nM.

Consider `COc1ccc(-c2cc([C@H](OC(=O)NC3CCC3)C(F)(F)F)ccc2F)cc1C(=O)N[C@@H]1C2/C(=C\C(F)(F)F)C(C(O)C2O)[C@@H]1C(=O)Nc1ccc(F)c(C(F)(F)F)c1` (stereo partly shown) [Example 348], for which the EC50 under setting [1] came to 1310 nM.

For the molecule `COc1cc(F)c(F)cc1C(=O)N[C@@H]1C2CCC(/C2=C/c2cccnc2)[C@@H]1C(=O)Nc1ccc(F)c(C(F)(F)F)c1` (stereo partly shown) [compound 22], the 50% effective concentration (EC50) under setting [1] was 700 nM.

For `Cc1ccc(C2=NOC3COCC23)cc1C(=O)N[C@H]1[C@@H](C(=O)Nc2ccc(F)c(C(F)(F)F)c2)[C@H]2CC[C@@H]1/C2=C\C1CC1` (single isomer, unassigned) [compound 654], under setting [1], the 50% effective concentration (EC50) is 300 nM.

In the case of `COc1ccc(C2=NOC3CC(CO)CC23)cc1C(=O)NC1C2CCC(C2=CC2CC2)C1C(=O)NCC(C)(C)C` (stereo not shown) [Example 453], the EC50 under setting [1] stood at 1.9 nM.

For `COc1ccc(C2=NOC3COCC23)cc1C(=O)N[C@H]1[C@@H](C(=O)NCC2(C)CCC2)[C@H]2CC[C@@H]1/C2=C\C1CC1` (stereo partly shown) [compound 477], the EC50 under setting [1] amounted to 6.4 nM.

For the molecule `COc1ccc(-c2cc(C(NC(=O)C3CCOCC3)C(=O)O)ccc2F)cc1C(=O)N[C@H]1[C@@H](C(=O)Nc2ccc(F)c(C(F)(F)F)c2)[C@H]2CC[C@@H]1/C2=C\CCC(F)(F)F` (stereo partly shown) [compound 940], under setting [1], the concentration for a half-maximal effect (EC50) was found to be 4.1 nM.

Regarding `COc1ccc(C2=NOC3CC(CO)CC23)cc1C(=O)N[C@H]1[C@@H](C(=O)Nc2ccc(F)c(C(F)(F)F)c2)[C@H]2CC[C@@H]1/C2=C\C1CCCC1` (stereo partly shown) [compound 445], the half-maximal effective concentration (EC50) under setting [1] amounted to 0.5 nM.

In the case of `COc1ccc(-c2cc(C(C)O)ccc2F)cc1C(=O)N[C@@H]1C2CCC(/C2=C/C2CC2)[C@@H]1C(=O)Nc1ccc(F)c(C(F)(F)F)c1` (stereo partly shown) [compound 248], under setting [1], the EC50 was 4 nM.

`COc1ccc(-c2cc([C@H](OC(=O)NC3CCC3)C(=O)O)ccc2F)cc1C(=O)N[C@H]1[C@@H](C(=O)Nc2ccc(F)c(C(F)(F)F)c2)[C@H]2CC[C@@H]1/C2=C\CC(C)C` [compound 937]: under setting [1], the EC50 was 5.8 nM.

As for `COc1ccc(-c2cc(C3=NOC4COCC34)ccc2F)cc1C(=O)N[C@H]1[C@@H](C(=O)Nc2ccc(F)c(C(F)(F)F)c2)[C@H]2CC[C@@H]1/C2=C\C1CC1` (stereo partly shown) [compound 910], under setting [1], the EC50 turned out to be 3.4 nM.

Take `COc1ccc(C2=NOC3COCC23)cc1C(=O)N[C@H]1[C@@H](C(=O)NC2(C)CCCC2)[C@H]2CC[C@@H]1/C2=C\C1CC1` (stereo partly shown) [compound 494]: the EC50 under setting [1] is 10.4 nM.

`COc1ccc(C2=NOC3COCC23)c(F)c1C(=O)N[C@H]1[C@@H](C(=O)Nc2ccc(F)c(C(F)(F)F)c2)[C@H]2CC[C@@H]1/C2=C\C1CC1` (single isomer, unassigned) [compound 693]: the EC50 under setting [1] is 791 nM.

Regarding `COc1ccc(-c2cc(C(=O)NCC(=O)O)ccc2F)cc1C(=O)N[C@@H]1C2CCC(C2=C(C)C)[C@@H]1C(=O)Nc1ccc(F)c(C(F)(F)F)c1` (stereo partly shown) [compound 193], under setting [1], the half-maximal effective concentration (EC50) amounted to 300 nM.

Take `COc1ccc(-c2cncc(C(=O)O)c2)cc1C(=O)N[C@@H]1C2CCC(/C2=C/C(F)(F)F)[C@@H]1C(=O)Nc1ccc(F)c(C(F)(F)F)c1` (stereo partly shown) [compound 288]: under setting [1], the EC50 is 127 nM.

In the case of `COc1ccc(-c2nn[nH]n2)cc1C(=O)N[C@@H]1C2CCC(C2=C(C)C)[C@@H]1C(=O)Nc1ccc(F)c(C(F)(F)F)c1` (stereo partly shown) [Example 144], the EC50 under setting [1] is 2100 nM.

Take `COCC(=O)NC(C(=O)O)c1ccc(F)c(-c2ccc(OC)c(C(=O)N[C@@H]3C4CCC(/C4=C/C(F)(F)F)[C@@H]3C(=O)Nc3ccc(F)c(C(F)(F)F)c3)c2)c1` (stereo partly shown) [compound 243]: the EC50 under setting [1] amounted to 4 nM.

Consider `COc1cc(F)c(F)cc1C(=O)N[C@@H]1C2CCC(/C2=C/c2ccsc2)[C@@H]1C(=O)Nc1ccc(F)c(C(F)(F)F)c1` (stereo partly shown) [compound 36], for which, under setting [1], the 50% effective concentration (EC50) stood at 19 nM.

`CCO/N=C1\C2CCC1[C@H](C(=O)Nc1ccc(F)c(C(F)(F)F)c1)[C@@H]2NC(=O)c1cc(F)c(F)cc1OC` (stereo partly shown) [compound 133]: the EC50 under setting [1] was determined as 1700 nM.

For the molecule `COc1ccc(-c2cc(C(=O)NS(=O)(=O)C3CC3)ccc2F)cc1C(=O)N[C@@H]1C2CCC(C2=C(C)C)[C@@H]1C(=O)Nc1ccc(F)c(C(F)(F)F)c1` (stereo partly shown) [compound 157], under setting [1], the concentration for a half-maximal effect (EC50) came out at 610 nM.

Take `COc1ccc(-c2cc(C(=O)O)ccc2F)cc1C(=O)N[C@@H]1C2CCC(/C2=C/C2CC2)[C@@H]1C(=O)NCc1ccccc1OC(F)(F)F` (stereo partly shown) [compound 306]: the concentration giving a half-maximal response (EC50) under setting [1] is 540 nM.

With `COc1cc(F)c(F)cc1C(=O)N[C@@H]1C2CCC(/C2=C/C2=CCOCC2)[C@@H]1C(=O)Nc1ccc(F)c(C(F)(F)F)c1` (stereo partly shown) [compound 42], the EC50 under setting [1] stood at 130 nM.

Consider `COc1cc(F)c(F)cc1C(=O)N[C@@H]1C2CCC(C2=C(C)C)[C@@H]1C(=O)Nc1cccc(S(=O)(=O)C(F)(F)F)c1` (stereo partly shown) [compound 55], for which the EC50 under setting [1] turned out to be 230 nM.

Regarding `COc1ccc(N2C[C@H](O)CC2=O)cc1C(=O)N[C@H]1[C@@H](C(=O)Nc2ccc(F)c(C(F)(F)F)c2)[C@H]2CC[C@@H]1/C2=C\C1CC1` [compound 639], the half-maximal effective concentration (EC50) under setting [1] was found to be 212 nM.

Regarding `CCC/C=C1\[C@H]2CC[C@@H]1[C@H](C(=O)Nc1ccc(F)c(C(F)(F)F)c1)[C@@H]2NC(=O)c1cc(C2=NOC3CC(CO)CC23)ccc1OC` (stereo partly shown) [compound 800], under setting [1], the EC50 was 1 nM.

As for `COc1ccc(-c2cc(C(=O)O)ccc2F)cc1C(=O)N[C@@H]1C2CCC(/C2=C/C2CC2)[C@@H]1C(=O)Nc1ccc(C#N)c(C(F)(F)F)c1` (stereo partly shown) [compound 270], a half-maximal effect (cAMP hRXFP1 HEK293 Assay EC50, HEK293 cells stably expressing human RXFP1, 30 min at room temperature) (EC50) was put at 25 nM.

In the case of `COc1cc(F)c(C2=NOC3COCC23)cc1C(=O)N[C@H]1[C@@H](C(=O)Nc2ccc(F)c(C(F)(F)F)c2)[C@H]2CC[C@@H]1/C2=C\C1CC1` (single isomer, unassigned) [compound 463], the EC50 under setting [1] was found to be 3.1 nM.

`COc1ccc(C2=NO[C@H]3CC(CO)C[C@@H]23)cc1C(=O)N[C@H]1[C@@H](C(=O)Nc2ccc(F)c(C(F)(F)F)c2)[C@H]2CC[C@@H]1/C2=C\CCF` (stereo partly shown) [compound 814]: the half-maximal effective concentration (EC50) under setting [1] worked out at 1.2 nM.

Regarding `COc1ccc(-c2cc(C(=O)N3CCCC3)ccc2F)cc1C(=O)N[C@@H]1C2CCC(/C2=C/c2cnoc2)[C@@H]1C(=O)Nc1ccc(F)c(C(F)(F)F)c1` (stereo partly shown) [compound 191], the EC50 under setting [1] is 42 nM.

On to `COc1ccc(-c2cn(C)nc2C)cc1C(=O)N[C@H]1[C@@H](C(=O)Nc2ccc(F)c(C(F)(F)F)c2)[C@H]2CC[C@@H]1C2=C(C)C` [compound 92], for which, under setting [1], the EC50 was determined as 380 nM.

Values taken from patent publication US20250221966A1, “RXFP1 AGONISTS” (BRISTOL-MYERS SQUIBB COMPANY, priority 2021, published 2025).
